Source: ChEMBL document CHEMBL5154826, “Discovery of the Clinical Candidate MAK683: An EED-Directed, Allosteric, and Selective PRC2 Inhibitor for the Treatment of Advanced Malignancies” (J Med Chem, 2022)
≈ marks a conversion by molar mass, not a printed value. Values belong to the compound of their own block, whether it stands above or below them. Calls of active or inactive are those of the source. The rule behind the calls is not given here.

Tests used:
[1] = biological target: T1, Alpha-2C adrenergic receptor (Homo sapiens, UniProt P18825); assay: Inhibition of alpha2c adrenergic receptor (unknown origin)
T1 sequence (P18825 whole entry): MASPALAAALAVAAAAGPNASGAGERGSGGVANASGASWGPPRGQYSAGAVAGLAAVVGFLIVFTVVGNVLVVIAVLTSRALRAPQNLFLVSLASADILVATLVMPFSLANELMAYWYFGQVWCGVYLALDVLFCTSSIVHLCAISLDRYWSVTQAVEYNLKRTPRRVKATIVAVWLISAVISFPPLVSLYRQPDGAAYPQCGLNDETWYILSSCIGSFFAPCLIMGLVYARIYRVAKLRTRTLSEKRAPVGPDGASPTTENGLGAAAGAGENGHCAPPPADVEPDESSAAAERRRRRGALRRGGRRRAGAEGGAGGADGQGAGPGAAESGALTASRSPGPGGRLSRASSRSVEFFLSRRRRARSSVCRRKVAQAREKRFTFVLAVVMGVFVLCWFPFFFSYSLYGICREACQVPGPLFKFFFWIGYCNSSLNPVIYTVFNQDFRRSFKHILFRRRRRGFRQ

[2] = Inhibition of PRC2 (unknown origin) assessed as reduction in H3K27 trimethylation using H3K27Me0 peptide (21 to 44 residues) as substrate by measuring SAH formation by LC-MS analysis; parameters: species or system Homo sapiens
KARPAS-422 [3] = assay: Antiproliferative activity against human KARPAS-422 cells expressing EZH2 mutant assessed as inhibition of cell growth after 14 days by beckman coulter counting method; type: functional; details: Homo sapiens, KARPAS-422, 336 h; time 14 day
[4] = Lipophilicity, logD of the compound at pH 7.4 by LC with tandem MS analysis; type: physicochemical; details: buffer, read-out: logD
[5] = Dissociation constant, pKa of compound; type: physicochemical
[6] = High throughput solubility of the compound at pH 6.8 after 16 to 24 hrs by MS/MS analysis; type: physicochemical; details: buffer, time 16-24 hrs
[7] = Permeability across apical to basolateral side in human Caco-2 cells at 10 uM incubated for 2 hrs by LC/MS/MS analysis; type: ADME, cell-based; details: Caco-2, read-out: permeability
[8] = Efflux ratio of apparent permeability across basolateral to apical side over apical to basolateral side in human Caco-2 cells at 10 uM incubated for 2 hrs by LC/MS/MS analysis; type: ADME, cell-based
[9] = Dose normalized AUC in Sprague-Dawley rat at 2 mg/kg, po; type: ADME, organism-based; details: in vivo
[10] = Terminal half life in Sprague-Dawley rat at 2 mg/kg, po; type: ADME, organism-based; details: in vivo, read-out: beta t1/2 (converted)
[11] = Oral bioavailability in Sprague-Dawley rat at 2 mg/kg; type: ADME, organism-based; details: in vivo
Cytochrome P450 3A4 = Cytochrome P450 3A4 (Homo sapiens, UniProt P08684); assay: Inhibition of CYP3A4 in human liver microsomes using midazolam as substrate incubated for 10 mins in presence of NADPH by LC-MS/MS analysis; type: ADME, Microsome
Cytochrome P450 2C9 = Cytochrome P450 2C9 (Homo sapiens, UniProt P11712); assay: Inhibition of CYP2C9 in human liver microsomes using diclofenac as substrate incubated for 10 mins in presence of NADPH by LC-MS/MS analysis; type: ADME, Microsome
Cytochrome P450 2D6 = Cytochrome P450 2D6 (Homo sapiens, UniProt P10635); assay: Inhibition of CYP2D6 in human liver microsomes using bufuralol as substrate incubated for 10 mins in presence of NADPH by LC-MS/MS analysis; type: ADME, Microsome
[12] = biological target: 3',5'-cyclic-AMP phosphodiesterase 4D (Homo sapiens, UniProt Q08499); assay: Inhibition of human Phosphodiesterase 4D
cells = details: Homo sapiens, G-401, 48 h
Description: Inhibition of PRC2 in human G-401 cells assessed as H3K27 methylation status incubated for 48 hrs by ELISA method

Pfeiffer = assay: Antiproliferative activity against human Pfeiffer cells assessed as inhibition of cell growth after 6 days by celltitre-glo assay; type: functional; details: 144 h, time 6 day
KARPAS-422 [13] = assay: Antitumor activity against human Karpas-422 cells xenografted Athymic BALB/c nude mouse assessed as effect on tumor growth, at 10 to 300 mg/kg, po bid, treatment started at twenty fifth after implantation of cancer cells measured upto 55 days; type: functional, organism-based; details: dose 10-300 mg/kg, time <= 55.0 day, DDE = dose-dependent effect
Mus musculus [14] = assay: Reduction of […] in tumor of human Karpas-422 cells xenografted Athymic BALB/c nude mouse tumor at 3 to 300 mg/kg, po bid for 10 days; type: functional, organism-based; details: dose 3-300 mg/kg, time 10.0 day, DDE = dose-dependent effect
Mus musculus [15] = assay: Reduction of H3K27 level in tumor of human Karpas-422 cells xenografted Athymic BALB/c nude mouse at 3 to 300 mg/kg, po bid for 21 days; type: functional, organism-based; details: dose 3-300 mg/kg, time 21.0 day, DDE = dose-dependent effect
Mus musculus [16] = assay: Reduction of H3K27 level in tumor of human Karpas-422 cells xenografted Athymic BALB/c nude mouse at 3 to 100 mg/kg, po bid measured after 14 days; type: functional, organism-based; details: dose 3-100 mg/kg, time 14.0 day, DDE = dose-dependent effect
KARPAS-422 [17] = assay: Antitumor activity against human Karpas-422 cells xenografted Athymic NTac:NIH-Whn nude rat assessed as inhibition of cell growth at 0.3 to 60 mg/kg, po, qd upto 130 days; type: functional, organism-based; details: dose 0.3-60 mg/kg, time <= 130.0 day
PBMC [18] = assay: In vivo inhibition of PRC2 in PBMC collected from human Karpas-422 cells xenografted Athymic NTac:NIH-Whn nude rat assessed as reduction in H3K27me3 level at 30 mg/kg, po, qd upto 4 weeks by FACS method; type: functional, organism-based; details: TDE = time-dependent effect
PBMC [19] = assay: In vivo inhibition of PRC2 in PBMC collected from human Karpas-422 cells xenografted Athymic NTac:NIH-Whn nude rat assessed as complete recovery of H3K27me3 level at 30 mg/kg, po, qd treated for 4 weeks, followed by 4 weeks recovery period by FACS method; type: functional, organism-based
Mus musculus [20] = assay: Reduction of H3K27 level in tumor of human Karpas-422 cells xenografted Athymic BALB/c nude mouse tumor at 20 mg/kg, po qd measured after 14 days; type: functional, organism-based; details: time 14.0 day
[21] = High throughput solubility of the compound at pH 7 after 16 to 24 hrs by MS/MS analysis; type: physicochemical; details: buffer, time 16-24 hrs
[22] = High throughput solubility of the compound at pH 4 after 16 to 24 hrs by MS/MS analysis; type: physicochemical; details: buffer, time 16-24 hrs

Chain of Cytochrome P450 2D6 (P10635 whole entry): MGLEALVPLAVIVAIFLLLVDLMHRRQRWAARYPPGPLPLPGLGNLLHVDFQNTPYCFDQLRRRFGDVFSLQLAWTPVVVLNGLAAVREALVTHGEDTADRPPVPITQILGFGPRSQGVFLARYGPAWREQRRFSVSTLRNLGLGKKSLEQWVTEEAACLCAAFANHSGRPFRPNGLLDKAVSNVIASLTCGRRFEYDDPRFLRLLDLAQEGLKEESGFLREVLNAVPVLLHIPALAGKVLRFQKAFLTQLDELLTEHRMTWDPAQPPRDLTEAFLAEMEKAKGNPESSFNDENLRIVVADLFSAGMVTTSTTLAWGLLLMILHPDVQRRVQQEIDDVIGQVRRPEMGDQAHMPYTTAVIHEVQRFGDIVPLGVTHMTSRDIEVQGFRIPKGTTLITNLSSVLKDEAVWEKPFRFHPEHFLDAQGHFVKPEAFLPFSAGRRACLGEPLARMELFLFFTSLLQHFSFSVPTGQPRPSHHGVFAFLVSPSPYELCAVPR
Chain of 3',5'-cyclic-AMP phosphodiesterase 4D (Q08499 whole entry): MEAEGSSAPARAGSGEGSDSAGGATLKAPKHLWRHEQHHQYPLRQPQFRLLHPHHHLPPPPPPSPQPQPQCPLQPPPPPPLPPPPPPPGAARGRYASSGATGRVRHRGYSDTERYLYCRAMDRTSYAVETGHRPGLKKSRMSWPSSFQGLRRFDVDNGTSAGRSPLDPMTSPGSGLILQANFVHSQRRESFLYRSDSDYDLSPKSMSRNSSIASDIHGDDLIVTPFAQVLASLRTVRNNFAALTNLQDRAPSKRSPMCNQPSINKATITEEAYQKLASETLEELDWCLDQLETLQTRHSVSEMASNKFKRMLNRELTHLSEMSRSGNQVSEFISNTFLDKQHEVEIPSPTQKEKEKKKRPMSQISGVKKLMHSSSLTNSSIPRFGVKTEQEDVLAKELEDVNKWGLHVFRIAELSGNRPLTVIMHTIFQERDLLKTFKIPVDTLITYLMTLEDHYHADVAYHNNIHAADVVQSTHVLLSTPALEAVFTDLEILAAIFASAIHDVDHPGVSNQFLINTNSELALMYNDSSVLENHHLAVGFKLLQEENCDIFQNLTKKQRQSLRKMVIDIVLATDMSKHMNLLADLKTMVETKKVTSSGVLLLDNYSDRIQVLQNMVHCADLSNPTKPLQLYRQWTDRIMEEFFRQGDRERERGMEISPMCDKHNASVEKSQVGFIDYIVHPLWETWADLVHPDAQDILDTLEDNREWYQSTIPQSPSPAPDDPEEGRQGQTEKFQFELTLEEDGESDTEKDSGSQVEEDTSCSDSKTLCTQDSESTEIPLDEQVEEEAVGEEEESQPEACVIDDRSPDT
Chain of Cytochrome P450 2C9 (P11712 whole entry): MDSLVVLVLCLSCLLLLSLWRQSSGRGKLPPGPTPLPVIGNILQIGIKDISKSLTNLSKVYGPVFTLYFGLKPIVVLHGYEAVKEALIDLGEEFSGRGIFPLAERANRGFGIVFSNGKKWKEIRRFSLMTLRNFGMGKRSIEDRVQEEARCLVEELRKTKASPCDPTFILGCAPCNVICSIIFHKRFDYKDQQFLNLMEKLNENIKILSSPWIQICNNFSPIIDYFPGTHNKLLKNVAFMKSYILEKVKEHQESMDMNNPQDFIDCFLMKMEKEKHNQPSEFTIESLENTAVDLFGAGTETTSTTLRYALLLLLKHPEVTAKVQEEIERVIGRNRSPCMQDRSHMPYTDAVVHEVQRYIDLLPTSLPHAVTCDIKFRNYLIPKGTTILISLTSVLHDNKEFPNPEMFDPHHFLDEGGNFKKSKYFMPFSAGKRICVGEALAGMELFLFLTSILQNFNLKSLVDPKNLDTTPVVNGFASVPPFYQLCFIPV
Chain of Cytochrome P450 3A4 (P08684 whole entry): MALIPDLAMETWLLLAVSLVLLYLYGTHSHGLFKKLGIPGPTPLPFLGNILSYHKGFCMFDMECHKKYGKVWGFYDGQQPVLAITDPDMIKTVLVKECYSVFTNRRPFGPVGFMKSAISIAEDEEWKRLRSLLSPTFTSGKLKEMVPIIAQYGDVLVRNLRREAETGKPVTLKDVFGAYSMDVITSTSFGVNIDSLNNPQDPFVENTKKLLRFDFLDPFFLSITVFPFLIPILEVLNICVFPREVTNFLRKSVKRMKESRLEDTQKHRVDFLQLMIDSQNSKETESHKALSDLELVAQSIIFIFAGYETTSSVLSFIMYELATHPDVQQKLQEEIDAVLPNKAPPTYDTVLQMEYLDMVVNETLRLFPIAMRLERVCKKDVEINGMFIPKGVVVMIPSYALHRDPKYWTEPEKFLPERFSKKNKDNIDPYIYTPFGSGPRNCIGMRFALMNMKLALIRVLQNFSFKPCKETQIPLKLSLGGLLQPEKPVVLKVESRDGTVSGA

SMILES: c1cncc(-c2cnc(NCc3cccc4c3CCO4)n3cnnc23)c1
IC50 [1]: 3.9 µM
IC50 [2]: 0.024 µM
GI50 (KARPAS-422 [3]): 0.012 µM
logD [4]: 2.6
pKa [5]: 4.5
solubility [6]: 15 µM (≈ 5.17 µg/mL)
Papp A→B at 2 h, 10 µM [7]: 30 ×10⁻⁶ cm/s
efflux ratio at 2 h, 10 µM [8]: 0.96
AUC/dose [9]: 5790 nM·h
half-life [10]: 1.5 h
bioavailability [11]: 71%
IC50 (Cytochrome P450 3A4): 29 µM
IC50 (Cytochrome P450 2C9): 12 µM
IC50 (Cytochrome P450 2D6): 0.1 µM
IC50 [12]: 2.6 µM
IC50 (cells): 0.033 µM

SMILES: Cc1ccc(-c2cnc(NCc3c(F)ccc4c3CCO4)n3cnnc23)cn1
IC50 [2]: 0.019 µM
solubility [6]: 112 µM (≈ 42.2 µg/mL)
IC50 (Cytochrome P450 2D6): 7.4 µM

SMILES: COc1cccc(CNc2ncc(-c3ccc(CN(C)C)cc3)c3nncn23)c1
IC50 [2]: 110 µM
GI50 (Pfeiffer): 2.97 µM
IC50 (cells): 320 µM

SMILES: Cc1ncccc1-c1cnc(NCc2c(F)ccc3c2CCO3)n2cnnc12
Activity (KARPAS-422 [13]): Dde
Activity (Mus musculus [14]): Dde
Activity (Mus musculus [15]): Dde
Activity (Mus musculus [16]): Dde
Activity (KARPAS-422 [17]): Active
inhibition (PBMC [18]): Tde
inhibition (PBMC [19]): Active
Activity (Mus musculus [20]): Active

SMILES: c1cc(CNc2ncc(-c3ccncc3)c3nncn23)c2c(c1)OCC2
IC50 [1]: > 30 µM
IC50 [2]: 0.017 µM
GI50 (KARPAS-422 [3]): 0.01 µM
logD [4]: 2.5
pKa [5]: 5.4
solubility [6]: 5 µM (≈ 1.72 µg/mL)
IC50 (Cytochrome P450 2C9): > 50 µM
IC50 (Cytochrome P450 2D6): 0.2 µM
IC50 [12]: 10 µM

SMILES: COc1cccc(F)c1CNc1ccc(-c2cccnc2C)c2nncn12
IC50 [2]: 0.011 µM
solubility [6]: 265 µM (≈ 96.3 µg/mL)
IC50 (Cytochrome P450 2D6): > 50 µM

SMILES: COc1cccc(F)c1CNc1ccc(-c2ccc(C)nc2C)c2nncn12
IC50 [2]: 0.023 µM
solubility [6]: 162 µM (≈ 61.1 µg/mL)
IC50 (Cytochrome P450 2D6): 25 µM

Second part, led by results:

IC50 [2]: 0.005 µM
solubility [6]: 308 µM (≈ 120 µg/mL)
IC50 (Cytochrome P450 2D6): 31 µM
SMILES: Cc1ccc(-c2cnc(NCc3c(F)ccc4c3CCO4)n3cnnc23)c(C)n1

solubility [6]: 85 µM (≈ 30.8 µg/mL)
IC50 (Cytochrome P450 2D6): 0.019 µM
SMILES: Fc1ccc2c(c1CNc1ncc(-c3cccnc3)c3nncn13)CCO2

IC50 [2]: 0.016 µM
solubility [6]: 22 µM (≈ 7.69 µg/mL)
IC50 (Cytochrome P450 2D6): 0.4 µM
SMILES: COc1cccc(F)c1CNc1ccc(-c2cccnc2)c2nncn12

IC50 [2]: 2600 µM
SMILES: CN(C)Cc1ccc(-c2cnc(NCc3cccc4c3OCC4)n3cnnc23)cc1

IC50 [2]: 15 µM
IC50 (cells): 260 µM
SMILES: CN(C)Cc1ccc(-c2cnc(NCc3cccc4c3OCO4)n3cnnc23)cc1
GI50 (Pfeiffer): 1.3 µM

IC50 [2]: 20 µM
IC50 (cells): 14 µM
SMILES: CN(C)Cc1ccc(-c2cnc(NCc3cccc4c3CCO4)n3cnnc23)cc1
GI50 (Pfeiffer): 0.067 µM

solubility [21]: 69 µM
solubility [22]: 494 µM
SMILES: Cc1ncccc1-c1cnc(NCc2c(F)ccc3c2CCO3)n2cnnc12.Cl
